# According to paper PMC9599613 (Biomolecules, 2022):
# Legend:
# COX-2 = biological target: T1, COX-2 (Homo sapiens, UniProt P35354); assay: biochemical
# T1 sequence (P35354 18-604): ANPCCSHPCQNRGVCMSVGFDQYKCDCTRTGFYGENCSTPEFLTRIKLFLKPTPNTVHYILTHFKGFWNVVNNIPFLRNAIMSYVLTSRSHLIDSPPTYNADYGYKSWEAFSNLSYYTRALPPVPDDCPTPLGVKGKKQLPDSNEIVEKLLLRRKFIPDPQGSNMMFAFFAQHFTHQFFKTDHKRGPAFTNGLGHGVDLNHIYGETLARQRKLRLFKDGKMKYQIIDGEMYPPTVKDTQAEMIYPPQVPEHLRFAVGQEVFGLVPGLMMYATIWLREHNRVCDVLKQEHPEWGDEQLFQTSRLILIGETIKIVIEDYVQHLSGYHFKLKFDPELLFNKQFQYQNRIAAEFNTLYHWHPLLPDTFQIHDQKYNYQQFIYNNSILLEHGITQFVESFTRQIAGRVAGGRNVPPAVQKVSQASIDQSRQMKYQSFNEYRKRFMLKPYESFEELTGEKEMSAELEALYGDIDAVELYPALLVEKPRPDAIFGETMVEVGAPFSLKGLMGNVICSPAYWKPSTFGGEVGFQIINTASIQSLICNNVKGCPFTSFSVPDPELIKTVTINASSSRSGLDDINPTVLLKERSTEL
# Description: The Cyclooxygenase enzymes (COX-1 and 2) inhibitory potential of our test compounds was determined according to the previously reported procedure. […] The enzyme solutions with a concentration of 0.7–0.8 μg/10 μL (COX-1) and 300 U/mL (COX-2) were prepared. To start the assay, for enzyme activation, 10 µL enzyme solution (kept in a cool temperature of 4 °C for 5 min) and cofactor containing hematin (50 µL, 1 mM), glutathione (0.9 mM) and TMPD in a Tris-buffer (0.1 M) with a pH 8.0 was added. After that, 60 µL of the enzyme solution was added to 20 µL of the test samples of various concentrations and incubated at room temperature for 5 to 10 min. Then, 20 µL of arachidonic acid (30 mM) was added to start the reaction. The mixture was then again incubated for 15 min at 37 °C, and absorbances were measured at 570 nm with UV-visible spectrophotometer. […] The % enzyme inhibitions were calculated by using the previously reported formula.
# [1] = ABTS free radical scavenging assay
# Description: The antioxidant potentials of isolated phytosteroids 1 and 2 were also determined using the ABTS (2,2′-azino-bis(3-ethylbenzothiazoline-6-sulfonic acid)) standard method. […] This created free radicals within the sample. Afterward, the addition of 50% methanol and the ABTS radical cation solution were adjusted to pH 7.4 by dilution with the phosphate buffer (pH 7.4). […] The positive control was ascorbic acid, and the assay was repeated in triplicate. The percent radical scavenging potential of the test compounds was calculated using the standard reported formula.
# human recombinant 5-LOX = biological target: T2, human recombinant 5-LOX (Homo sapiens, UniProt P09917); assay: biochemical
# T2 sequence (P09917 1-674): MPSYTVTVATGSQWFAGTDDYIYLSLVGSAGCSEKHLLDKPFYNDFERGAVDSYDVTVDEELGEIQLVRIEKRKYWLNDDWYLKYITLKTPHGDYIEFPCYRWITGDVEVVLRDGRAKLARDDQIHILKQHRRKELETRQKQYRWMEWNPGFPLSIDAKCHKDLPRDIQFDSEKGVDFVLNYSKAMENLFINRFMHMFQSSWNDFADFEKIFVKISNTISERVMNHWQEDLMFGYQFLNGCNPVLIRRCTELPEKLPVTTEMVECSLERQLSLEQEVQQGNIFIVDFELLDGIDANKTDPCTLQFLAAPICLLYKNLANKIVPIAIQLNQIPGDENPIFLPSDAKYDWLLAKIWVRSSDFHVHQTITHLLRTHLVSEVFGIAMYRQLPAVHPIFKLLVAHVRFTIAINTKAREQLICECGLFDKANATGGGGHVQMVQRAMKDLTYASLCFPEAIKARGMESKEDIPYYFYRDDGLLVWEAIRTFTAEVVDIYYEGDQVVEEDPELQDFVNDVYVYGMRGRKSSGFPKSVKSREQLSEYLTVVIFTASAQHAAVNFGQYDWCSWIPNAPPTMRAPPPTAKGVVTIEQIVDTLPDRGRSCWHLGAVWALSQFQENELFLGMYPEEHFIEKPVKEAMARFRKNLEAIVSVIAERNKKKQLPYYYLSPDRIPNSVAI
# Description: The lipoxygenase assay on our test compounds was performed by utilizing human recombinant 5-LOX [65]. […] The enzyme solution with a concentration of 10,000 U/mL was prepared, whereas 80 mM linoleic acid solution was used as a substrate. Solutions were prepared in a phosphate buffer (50 mM) with a pH of 6.3, which was also utilized as the blank. To start, various concentrations of our test samples were dissolved in 0.25 mL of the buffer, to which 0.25 mL enzyme solution was added and incubated at 25 °C for 5 min. Afterward, the substrate solution (0.1 mL) was added to the mixture and shaken well. […] In this assay, the standard drug was montelukast, and using the following formula, the % inhibitions were calculated: % enzyme inhibition=X−X1/X×100 where X = absorbance of the negative control (with no test sample), and X1 = absorbance of the test compound.
# [2] = biological target: T3, acetylcholinesterase (AChE) (Electrophorus electricus, UniProt O42275); assay: Anticholinesterase assay (Ellman's), AChE inhibition; assay type: biochemical
# T3 construct: acetylcholinesterase (AChE, obtained from Electrophorus electricus); from tissue
# T3 sequence (O42275 24-633): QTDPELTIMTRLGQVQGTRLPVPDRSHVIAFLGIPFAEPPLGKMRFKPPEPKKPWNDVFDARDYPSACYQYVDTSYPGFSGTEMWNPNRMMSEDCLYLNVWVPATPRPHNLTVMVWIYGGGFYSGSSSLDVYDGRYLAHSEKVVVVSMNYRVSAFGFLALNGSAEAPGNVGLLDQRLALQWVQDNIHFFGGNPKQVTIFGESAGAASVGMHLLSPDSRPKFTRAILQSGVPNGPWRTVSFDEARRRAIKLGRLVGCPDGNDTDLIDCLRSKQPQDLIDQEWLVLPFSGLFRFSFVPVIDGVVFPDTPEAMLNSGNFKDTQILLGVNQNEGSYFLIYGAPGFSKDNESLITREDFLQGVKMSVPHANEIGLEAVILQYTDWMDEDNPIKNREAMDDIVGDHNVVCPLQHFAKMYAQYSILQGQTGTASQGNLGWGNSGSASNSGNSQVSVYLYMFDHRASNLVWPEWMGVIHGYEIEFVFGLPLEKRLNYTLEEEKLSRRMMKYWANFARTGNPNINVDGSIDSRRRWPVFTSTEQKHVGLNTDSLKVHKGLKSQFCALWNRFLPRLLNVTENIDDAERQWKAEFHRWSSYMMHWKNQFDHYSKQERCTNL
# Description: This enzyme method relied on the hydrolytic of acetyl cholinethioiodide (ATChI) by acetylcholinesterase and butyrylthiocholine iodide (BTchI) by butyrylcholinesterase. As a result of this breakdown, 5-thio-2-nitrobenoate anions formed. […] The absorption was measured with a spectrophotometer, as per the protocols. […] An amount of 0.1 M phosphate buffer (8.0 ± 0.1 pH) solution was prepared, whose final pH was adjusted by using the KOH solution.
# In this assay, 50 µL enzyme solution and 50 µL DTNB reagent were added to 1 mL test samples in a cuvette and then incubated at 30 °C for 15 min. Afterward, a 50 µL substrate solution was added to the mixture.
smiles,measurement,setting,value
"CCC(CCC(C)C1CCC2C3CCC4=CC(=O)CCC4(C)C3CCC12C)C(C)C (stereo not shown) [Compound 2, 17-(5-ethyl-6-methylheptan-2-yl)-10,13-dimethyl-1,2,6,7,8,9,10,11,12,13,14,15,16,17-tetradecahydro-3H-cyclopenta[a]phenanthren-3-one]",inhibition at 62.5 µg/mL,"COX-2; 62.50 μg/mL, read-out: % COX-2 Inhibition",61.9 ± 1.13%
same,inhibition at 125 µg/mL,"COX-2; 125 μg/mL, read-out: % COX-2 Inhibition",68.3 ± 0.64%
same,inhibition at 250 µg/mL,"COX-2; 250 μg/mL, read-out: % COX-2 Inhibition",73.34 ± 0.63%
same,inhibition at 500 µg/mL,"COX-2; 500 μg/mL, read-out: % COX-2 Inhibition",78.3 ± 0.64%
same,inhibition at 1000 µg/mL,"COX-2; 1000 μg/mL, read-out: % COX-2 Inhibition",83.17 ± 0.72%
same,IC50,COX-2; read-out: COX-2 IC50 (converted),20.5 µM
same,ABTS IC50,[1],185.83 µg/mL
same,Percent ABTS Activity (mean ± SEM),[1]; 62.5 μg/mL,41.34 ± 1.01 %
same,Percent ABTS Activity (mean ± SEM),[1]; 125 μg/mL,46.73 ± 0.78 %
same,Percent ABTS Activity (mean ± SEM),[1]; 250 μg/mL,51.37 ± 1.65 %
same,Percent ABTS Activity (mean ± SEM),[1]; 500 μg/mL,57.85 ± 0.97 %
same,Percent ABTS Activity (mean ± SEM),[1]; 1000 μg/mL,65.17 ± 0.72 %
same,Percent ABTS Activity (mean ± SEM),"[1]; 1000 μg/mL, listed as compound 2",65.17 ± 0.72%
same,IC50,human recombinant 5-LOX; read-out: 5-LOX IC50 (converted),21.1 µM
same,inhibition at 62.5 µg/mL,human recombinant 5-LOX; read-out: % 5-LOX Inhibition,63.47 ± 0.56%
same,inhibition at 125 µg/mL,human recombinant 5-LOX; read-out: % 5-LOX Inhibition,67.74 ± 0.61%
same,inhibition at 250 µg/mL,human recombinant 5-LOX; read-out: % 5-LOX Inhibition,73.67 ± 0.61%
same,inhibition at 500 µg/mL,human recombinant 5-LOX; read-out: % 5-LOX Inhibition,78.76 ± 0.58%
same,inhibition at 1000 µg/mL,human recombinant 5-LOX; read-out: % 5-LOX Inhibition,85 ± 0.3%
same,IC50,[2],35.2 µM
same,AChE inhibition (%),[2]; 62.5 μg/mL,58.12 ± 0.34 %
same,AChE inhibition (%),[2]; 125 μg/mL,63.47 ± 0.49 %
same,AChE inhibition (%),[2]; 250 μg/mL,68.75 ± 0.14 %
same,AChE inhibition (%),[2]; 500 μg/mL,75.59 ± 0.30 %
same,AChE inhibition (%),[2]; 1000 μg/mL,80.85 ± 0.18 %
